Reference: publication PMC10281575, “PfCRT mutations conferring piperaquine resistance in falciparum malaria shape the kinetics of quinoline drug binding and transport” (PLOS Pathogens, 2023)
Residue numbers refer to the chain shown, from its start. Entries after “also recorded” stand apart in the source; their conditions may differ.

Tests used:
PfCRT^Dd2_H97Y = biological target: T1, PfCRT^Dd2_H97Y (Plasmodium falciparum, UniProt Q8IBZ9, A220S/H97Y/I356T/K76T/M74I/N326S/N75E/Q271E/R371I); test: Verapamil inhibition of PfCRT-mediated CQ and PPQ transport in oocytes, PfCRT^Dd2_H97Y; format: cell-based; settings: 100 μM verapamil, 50 μM CQ or PPQ
T1 construct: expressed in transfected cells; host or cells: Xenopus laevis oocytes injected with in vitro transcribed RNA (pSP64T)
T1 sequence (Q8IBZ9 1-424 M74I/N75E/K76T/H97Y/A220S/Q271E/N326S/I356T/R371I): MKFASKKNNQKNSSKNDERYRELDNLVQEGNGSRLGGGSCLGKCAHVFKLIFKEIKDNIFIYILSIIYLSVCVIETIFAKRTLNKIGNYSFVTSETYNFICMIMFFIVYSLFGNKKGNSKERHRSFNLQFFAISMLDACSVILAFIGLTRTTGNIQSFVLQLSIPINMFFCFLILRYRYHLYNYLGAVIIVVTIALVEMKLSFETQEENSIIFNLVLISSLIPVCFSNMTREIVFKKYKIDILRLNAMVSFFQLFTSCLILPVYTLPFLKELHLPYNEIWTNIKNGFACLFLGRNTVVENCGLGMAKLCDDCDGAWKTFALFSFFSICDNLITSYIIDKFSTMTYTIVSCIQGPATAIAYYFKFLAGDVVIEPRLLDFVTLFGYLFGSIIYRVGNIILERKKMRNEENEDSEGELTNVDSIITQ
Description: (§1) In all cases, the PfCRT-mediated CQ and PPQ transport was inhibited in the presence of 100 μM verapamil (S3 Fig).
(§2) Drug transport assays were performed as previously described. Briefly, measurements of radiolabeled drug uptake were made over 1 h, unless otherwise specified. […] Where specified, one or more unlabeled drugs were also present at the indicated concentrations. The direction of drug transport in the assays is from the extracellular medium (pH 6) into the oocyte cytosol (pH 7.2), which corresponds to the efflux of CQ or PPQ from the acidic digestive vacuole (pH 5.2) into the parasite cytosol (pH 7.2). The uptake assays were terminated by removing the oocytes from the reaction medium and washing them three times with 2 mL of ice-cold ND96 buffer. Each oocyte was transferred to a separate scintillation vial and lysed by the addition of 200 μL of a 5% SDS solution. The radioactivity in the sample was measured using a liquid scintillation analyser Tri-Carb 4910 TR (PerkinElmer). Water-injected oocytes were analyzed in parallel as a negative control. The buffer from each condition was measured in duplicate in parallel to each experiment to transform counts per minute into pmol of drug. Drug uptake attributable to PfCRT was determined by subtracting the background uptake from water-injected oocytes from that of PfCRT-expressing oocytes. In all cases, at least three independent experiments were performed on oocytes from different frogs, and for each condition in an experiment, measurements were made from 10 oocytes per treatment.
(§3) Supplementary file ppat.1011436.s006.tif: S3 Fig Verapamil inhibits PfCRT-mediated transport of CQ and PPQ. […] Left panels, data is shown as individual biological replicates (coloured symbols) overlaid onto bars representing the Mean ± S.E.M. (error bars). A one-tailed Student’s t-test was performed between untreated (no VP) and treated (+ 100 μM VP) samples, and the obtained p values are shown. Right panels, the uptake in VP-treated samples was divided by the uptake in their corresponding untreated pairs and subtracted from 100% to get the percentage of uptake inhibition mediated by the presence of 100 μM verapamil in the extracellular medium. Error bars are S.E. (TIF) Click here for additional data file.

PfCRT^Dd2_F145I = biological target: T2, PfCRT^Dd2_F145I (Plasmodium falciparum, UniProt Q8IBZ9, A220S/F145I/I356T/K76T/M74I/N326S/N75E/Q271E/R371I); test: Verapamil inhibition of PfCRT-mediated CQ and PPQ transport in oocytes, PfCRT^Dd2_F145I; format: cell-based; settings: 100 μM verapamil, 50 μM CQ or PPQ
T2 construct: expressed in transfected cells; host or cells: Xenopus laevis oocytes injected with in vitro transcribed RNA (pSP64T)
T2 sequence (Q8IBZ9 1-424 M74I/N75E/K76T/F145I/A220S/Q271E/N326S/I356T/R371I): T1 sequence (Q8IBZ9 1-424 M74I/N75E/K76T/H97Y/A220S/Q271E/N326S/I356T/R371I) with Y97H, F145I
Description: as §1
as §2, with “In all cases, at least three independent experiments were performed on oocytes from different frogs, and for each condition in an experiment, measurements were made from 10 oocytes per treatment.” left out

PfCRT^Dd2_M343L = biological target: T3, PfCRT^Dd2_M343L (Plasmodium falciparum, UniProt Q8IBZ9, A220S/I356T/K76T/M343L/M74I/N326S/N75E/Q271E/R371I); test: Verapamil inhibition of PfCRT-mediated CQ and PPQ transport in oocytes, PfCRT^Dd2_M343L; format: cell-based; settings: 100 μM verapamil, 50 μM CQ or PPQ
T3 construct: expressed in transfected cells; host or cells: Xenopus laevis oocytes injected with in vitro transcribed RNA (pSP64T)
T3 sequence (Q8IBZ9 1-424 M74I/N75E/K76T/A220S/Q271E/N326S/M343L/I356T/R371I): T1 sequence (Q8IBZ9 1-424 M74I/N75E/K76T/H97Y/A220S/Q271E/N326S/I356T/R371I) with Y97H, M343L
Description: as §1, §2, §3

PfCRT^Dd2_G353V = biological target: T4, PfCRT^Dd2_G353V (Plasmodium falciparum, UniProt Q8IBZ9, A220S/G353V/I356T/K76T/M74I/N326S/N75E/Q271E/R371I); test: Verapamil inhibition of PfCRT-mediated CQ and PPQ transport in oocytes, PfCRT^Dd2_G353V; format: cell-based; settings: 100 μM verapamil, 50 μM CQ or PPQ
T4 construct: expressed in transfected cells; host or cells: Xenopus laevis oocytes injected with in vitro transcribed RNA (pSP64T)
T4 sequence (Q8IBZ9 1-424 M74I/N75E/K76T/A220S/Q271E/N326S/G353V/I356T/R371I): T1 sequence (Q8IBZ9 1-424 M74I/N75E/K76T/H97Y/A220S/Q271E/N326S/I356T/R371I) with Y97H, G353V
Description: as §1, §2, §3

PfCRT^Dd2 [1] = biological target: T5, PfCRT^Dd2 (Plasmodium falciparum, UniProt Q8IBZ9, A220S/I356T/K76T/M74I/N326S/N75E/Q271E/R371I); test: Verapamil inhibition of PfCRT-mediated CQ and PPQ transport in oocytes, PfCRT^Dd2; format: cell-based; set-up: expressed in transfected cells; host or cells: Xenopus laevis oocytes injected with in vitro transcribed RNA (pSP64T); settings: 100 μM verapamil, 50 μM CQ or PPQ
T5 sequence (Q8IBZ9 1-424 M74I/N75E/K76T/A220S/Q271E/N326S/I356T/R371I): T1 sequence (Q8IBZ9 1-424 M74I/N75E/K76T/H97Y/A220S/Q271E/N326S/I356T/R371I) with Y97H
Description: as §1, §2, §3

PfCRT^Dd2 [2] = biological target: T5, PfCRT^Dd2; set-up: expressed in transfected cells; host or cells: Xenopus laevis oocytes injected with in vitro transcribed RNA (pSP64T); settings: cited from earlier work

Structure (SMILES) | PfCRT-mediated CQ and PPQ transport in the presence of verapamil (PfCRT^Dd2_H97Y) | PfCRT-mediated CQ and PPQ transport in the presence of verapamil (PfCRT^Dd2_F145I) | PfCRT-mediated CQ and PPQ transport in the presence of verapamil (PfCRT^Dd2_M343L) | PfCRT-mediated CQ and PPQ transport in the presence of verapamil (PfCRT^Dd2_G353V) | PfCRT-mediated CQ and PPQ transport in the presence of verapamil (PfCRT^Dd2 [1]) | inhibition model versus CQ on PfCRT (PfCRT^Dd2 [2])
COc1ccc(CCN(C)CCCC(C#N)(c2ccc(OC)c(OC)c2)C(C)C)cc1OC (stereo not shown) [verapamil] | inhibited | inhibited | inhibited | inhibited | inhibited | partial mixed-type inhibitor; also recorded: mixed-type inhibition
C=C[C@H]1C[N@@]2CC[C@H]1C[C@H]2[C@H](O)c1ccnc2ccc(OC)cc12 [quinine] | – | – | – | – | – | partial mixed-type inhibition
